Molecules are shown by their SMILES. Entries after “also recorded” stand apart in the source; their conditions may differ.

Holding throughout (assay type): in vivo
Experiment [1] in a line: Flavor evaluation, tasted in water. As to conditions: for flavor evaluation: cooling: 40 ppm in water.
For experiment [2], the system named is descriptive analysis panel. Put plainly: Chewing gum cooling evaluation by descriptive analysis panel. As to conditions: gum blended with Structure I. How it is done:
The following gum base formulation was prepared: [table] Structure I by itself and in separate mixtures with monomenthyl glutarate, 2-isopropyl-N,2,3-trimethylbutyramid, N-ethyl-p-menthanecarboxamide and menthyl acetoacetate at levels detailed in the Tables below was blended with the gum base in a Sigma mixer. The resultant chewing gum blend was then manufactured into strips 1 inch in width and 0.1 inches in thickness. These strips were cut into lengths of 3 inches each. […] Samples were profiled by a highly trained descriptive analysis panel. The ballot consisted of the following terms: Total impact, total mint, cooling-mouth closed, cooling-breath in, nasal cooling—breath in, throat irritation, bitterness, tongue irritation, numbing. Each attribute was rated at discrete time points including 5 secs, 30 secs, 90 secs, 3 mins, 5 mins, 7 mins, 10 mins, 15 mins, 20 mins, and 30 mins. The following table details the panelist's results for the combination of Structure I with monomenthyl glutarate, 2-isopropyl-N,2,3-trimethylbutyramid, N-ethyl-p-menthanecarboxamide and menthyl acetoacetate at 3 minutes, 8 minutes, 20 minutes and 30 minute, 40 minute and 50 minute intervals. The amounts are listed in weight percent.

Experiment [3] can be described thus: Flavor evaluation, tasted in water. To be noted: 40 ppm in water. An excerpt:
Flavor Evaluation of Structure I
Flavor evaluation of the (2S,5R)—N-[4-(4-Amino-4-oxobutyl)phenyl]-5-methyl-2-(propan-2-yl)cyclohexanecarboxamide in water at concentration 40 ppm: […]

Consider `CC(C)[C@@H]1CC[C@@H](C)CC1C(=O)Nc1ccc(CC(N)=O)cc1` (stereo partly drawn) [Structure I, (2S,5R)—N-[4-(2-Amino-2-oxoethyl)phenyl]-5-methyl-2-(propan-2-yl)cyclohexanecarboxamide], for which the duration of cooling in experiment [1] (1 ppm in water) came out at 30 min; in experiment [1] (10 ppm in water, with breath in), 30 min. Also, the “flavor properties (cooling) when tasted in water” value in experiment [1] (1 ppm in water) was “clean with slight cooling up front that builds with time to moderate level”; in experiment [1] (10 ppm in water), “moderate throat and mouth cooling that lingers with some bitter notes in background”. In addition, the panelist comment entry is “Bitter, Brown, Sweet, slightly Vanilla” in experiment [2] (Panelist 1, 11:05 (start 11:04)); “Start to notice cooling” in experiment [2] (Panelist 1, 11:06 (start 11:04)); “Moderate cooling” in experiment [2] (Panelist 1, 11:08 (start 11:04)); “Moderate cooling in mouth and now back of the throat; nice on breath in; also recorded: Continued long lasting cooling” in experiment [2] (Panelist 1, 11:11 (start 11:04)); “Slight cooling moving to the front of the mouth” in experiment [2] (Panelist 1, 11:15 (start 11:04)); “Stable cooling all over, nice level” in experiment [2] (Panelist 1, 11:18 (start 11:04)). Besides, the panelist comment result in experiment [2] (Panelist 1, 11:22 (start 11:04)) is “Long lasting”; in experiment [2] (Panelist 2, 11:04 (start)) it was “Very sweet, brown”; in experiment [2] (Panelist 2, 11:07 (start 11:04)), “Started to notice cooling on breath and tip of the tongue”; in experiment [2] (Panelist 2, 11:09 (start 11:04)) it was “Started to notice on back of throat, continued to build in the rest of the mouth”; in experiment [2] (Panelist 2, 11:11 (start 11:04)), “Cooling consistent throughout mouth, slight irritation on the back of the throat”; in experiment [2] (Panelist 2, 11:15 (start 11:04)), “Cooling level the same”. The panelist comment entry is reported as “Still getting a good amount of cooling” in experiment [2] (Panelist 2, 11:24 (start 11:04)); “Cooling is gone” in experiment [2] (Panelist 2, 12:07 (start 11:04)); “Cooling on the back of the throat” in experiment [2] (Panelist 3, 11:07 (start 11:04)); “Concentrated on the back of the throat; irritating” in experiment [2] (Panelist 3, 11:14 (start 11:04)); “Full cooling after 20 min” in experiment [2] (Panelist 3, 11:22 (start 11:04)); “Cooling perception begins (mild)” in experiment [2] (Panelist 4, 11:07 (start 11:04)). The panelist comment entry in experiment [2] (Panelist 4, 11:09 (start 11:04)) was “Cooling pleasant, builds to moderate cooling on the front/tip of tongue”; in experiment [2] (Panelist 4, 11:11 (start 11:04)), “Intensity max reached”; in experiment [2] (Panelist 4, 11:14 (start 11:04)) it was “Cooling plateau, maintained. Delocalized all over mouth”; in experiment [2] (Panelist 4, 11:19 (start 11:04)), “Remains intense”; in experiment [2] (Panelist 4, 11:20 (start 11:04)) it was “Moves to throat (mild) very intense on tip of the tongue and center”; in experiment [2] (Panelist 4, 11:24 (start 11:04)) it was “Still cooling”. Also, the panelist comment entry in experiment [2] (Panelist 4, 12:00 (start 11:04)) is on record as “Cooling remains”; in experiment [2] (Panelist 4, 12:15 (start 11:04)) it was “Cooling diminished significantly”.

In the case of `CC(C)[C@@H]1CC[C@@H](C)CC1C(=O)Nc1ccc(CCCC(N)=O)cc1` (stereo partly drawn) [(2S,5R)—N-[4-(4-Amino-4-oxobutyl)phenyl]-5-methyl-2-(propan-2-yl)cyclohexanecarboxamide], the “flavor evaluation: onset and character of cooling” value in experiment [3] is “Late onset of cooling after expectorating, peppery on tip of tongue and back of throat, cooling on tip, irritating on back of throat—sore throat, cooling building on tip of tongue, peppery in esophagus”. In addition, the “flavor evaluation: taste” value in experiment [3] is on record as “Umami! Ribotide-like. Umami upfront”. Further, the “flavor evaluation: cooling” value is “Still going strong after 20 minutes and cooling on gums” in experiment [3] (after 20 minutes); “cooling just beginning, throat irritation, slight numbing on tip of tongue, mouth-watering, mouth coating—all over” in experiment [3] (~40 sec); “continuing to build” in experiment [3] (~7 minutes); “localized on tip” in experiment [1] (30 minutes); “beginning to build” in experiment [1] (~3.5 minutes).

Source of the values: patent US8487130B2, “Menthylcarboxamides and their use as cooling agents” (International Flavors & Fragrances Inc., priority 2009, dated 2013).
